Patent US20260232684A1, “FLT3 INHIBITORS AND METHODS OF USING THE SAME” (BIOVENTURES, LLC, priority 2023, published 2026)

Experiments:
[1] = test system: normal donor bone marrow mononuclear cells (BM-MNC); assay: Colony forming unit assay of normal bone marrow
Experimental: FIG. 2. […] Normal bone marrow mononuclear cells (BM-MNC) were purchased from StemCell Technologies. 30,000 cells were plated in methylcellulose with increasing concentrations of either gilteritinib, 1, or 2. Blast forming unit-erythroid (BFU-E) and colony forming unit-granulocyte (CFU-G) were counted after 14 days incubation. Assay was completed in triplicate with three independent blood donors. Data shown is cumulated from all independent experiments. Error bars show one standard deviation and p values compared to control were calculated using a Student's t-test. NS indicates an insignificant p value, * indicates p value≤0.05, ** indicates p value≤0.01, *** indicates p value≤0.001, **** indicates p value≤0.0001
Bone marrow mononuclear cells (BM-MNC) of healthy donors (n=3) were purchased from StemCell Technologies (Vancouver, Canada). Cells were plated in a 35 mm dish in triplicate with methylcellulose medium at a concentration previously determined to form approximately 100 total colonies, usually 30,000 cells/mL and containing the appropriate amount of drug. Dishes were incubated for 14-15 days and visually assessed for erythrocyte burst-forming units and granulocyte-macrophage colony-forming units.

[2] = test system: Molm-14 F691L cells stably expressing firefly luciferase; assay: Circulating tumor model, Molm14 F691L luciferase; type: in vivo; conditions: mice
Experimental: FIG. 7. […] Molm14 F691L stably expressing FLuc9 were engrafted in mice through tail vein injection. Mice were imaged once every three days.
Molm-14 F691L cells stably expressing firefly luciferase were injected into the tail vein of NSG mice and tumor growth was monitored through bioluminescence.

Molm14 D835Y cells = assay: Cell viability assay (CellTiter GLO), Molm14 D835Y; type: cell-based, human; conditions: 48 hours
Experimental: (§1) FIG. 1. […] Cells were treated with inhibitor at increasing log doses (0.1 nM-10 μM) for 48 hours. Cell viability was analyzed through CellTiter GLO. […] Cells were exposed to increasing amounts of each drug for 2 hours. GAPDH1 represents loading control for phospho-ERK and ERK blots. GAPDH2 represents loading control for phosphor-STAT5, STAT5, phospho-S6 and S6. Each experiment was completed in triplicate. Representative images are shown.
(§2) FIG. 5. […] Cells were dosed with inhibitor at increasing log doses (0.1 nM-10 μM) for 48 hours. Cell viability was analyzed through CellTiter GLO.
(§3) MV-4-11 and parental Molm-14 cells were a gift from Dr. Scott Kogan (University of California, San Francisco). HL60 and K562 cell lines were obtained from Charles Sawyers. […] Stable Ba/F3 lines were generated by retroviral infection as previously described (5). All cell lines were tested to be mycoplasma free and human cell lines were authenticated through STR profiling completed at the University of California, Berkeley.
(§4) Each triplicate was either dosed with drug or DMSO vehicle control. Drug dosing was completed at log doses ranging from 0.1 nM-10 μM. Cell viability was assessed after 48 hours using CellTiter GLO (Promega). Viability values were normalized to the vehicle control average. Numerical IC50 values were calculated in GraphPad Prism 7.

Molm14 F691L cells = assay: Cell viability assay (CellTiter GLO), Molm14 F691L; type: cell-based, human; conditions: 48 hours
Experimental: as §1, §2, §3, §4

Row | SMILES | impact on CFU-G counts/growth ([1]; equivalent multiples of Molm14 IC50, 14 days, three healthy donors) | impact on BFU-E counts/growth ([1]; human, 14 days) | maximally tolerated dose [2] [mg/kg] | activity in cell viability assay (IC50, FIG. 1A/5B), in words (Molm14 D835Y cells) | activity in cell viability assay (IC50, FIG. 1A/5B), in words (Molm14 F691L cells)
1 | CCc1nc(C(N)=O)c(Nc2ccc(N3CCC(N4CCN(C)CC4)CC3)c(OC)c2)nc1NC1CCOCC1 [gilteritinib, reference compound] | substantial impairment in BFU-E and CFU-G counts at 50× and 100×IC50 | substantial impairment in BFU-E and CFU-G counts at 50× and 100×IC50 | 33 | – | –
2 | CC(C)(C)c1cc(NC(=O)Nc2ccc(-c3cn4c(n3)sc3cc(OCCN5CCOCC5)ccc34)cc2)no1 [quizartinib, reference compound] | – | – | – | severely diminished activity | severely diminished activity
